The results in this text go back to patent publication EP2057185B1, “POLYMYXIN DERIVATIVES AND USES THEREOF” (Northern Antibiotics Oy, priority 2006, dated 2008).

Bridge positions count the residues as written; N and C are the ends. Square brackets hold non-standard residues; d marks the D form. Peptide text beside a SMILES is read from it. Dab = NCC[C@H](N)C(=O)O; Abu = CC[C@H](N)C(=O)O

One assay concerns E. coli ATCC25922. Kind of assay: MIC by E-strips on Mueller-Hinton agar with or without NAB7061 (4 µg/ml). In kind it is cell-based, Escherichia coli. To be noted: ratio of the MIC of the antibiotic in the absence of NAB 7061 to that in the presence of 4 µg/ml of NAB 7061; E. coli ATCC 25922. On the procedure:
(§1) MICs were determined by using E-strips (Biodisk Ltd., Solna, Sweden) according to the manufacturer's instructions.
(§2) The strains originated from ATCC (11 strains), CCUG (11 strains), and NCTC (The National Collection of Type Cultures, Colindale, U.K.; 2 strains). Eight strains (the F-strains) were purchased from Mobidiag Ltd., Helsinki, Finland.

In the next assay the test system is K. pneumoniae ATCC13883. The description is as above. The format is cell-based, Klebsiella pneumoniae. To be noted: ratio of the MIC of the antibiotic in the absence of NAB 7061 to that in the presence of 4 µg/ml of NAB 7061; K. pneum. ATCC 13883. On the procedure: as §1, §2
A further assay relates to E. cloacae ATCC23355. The description is as above. The format is cell-based, Enterobacter cloacae. To be noted: ratio of the MIC of the antibiotic in the absence of NAB 7061 to that in the presence of 4 µg/ml of NAB 7061; E. cloacae ATCC 23355. Here is the method:
as §1, §2

In assay [1] the test system is E. coli IH3080. Described as above. The format is cell-based, Escherichia coli. Conditions: ratio of the MIC of the antibiotic in the absence of NAB 7061 to that in the presence of 4 µg/ml of NAB 7061; E. coli IH 3080. Here is the method: as §1, §2
Assay [2] has as its system E. coli (ATCC25922 and IH3080), K. pneumoniae ATCC13883, and E. cloacae ATCC23355. Description: E-strip MIC, summary over the tested strains of Example 7. In kind it is cell-based. To be noted: range over the tested strains; NAB7061 4 µg/ml. Here is the method:
as §1

Assay [3] deals with E. coli IH3080. Kind of assay: Growth inhibition around wells on LB plates containing rifampin (sensitization). In kind it is cell-based, Escherichia coli. Conditions: well containing 4 µg of compound; for Antibacterial activity in the presence of rifampin concn (µg/ml) of 0: plates with no rifampin; for Antibacterial activity in the presence of rifampin concn (µg/ml) of 0.1: rifampin 0.1 µg/ml; for Antibacterial activity in the presence of rifampin concn (µg/ml) of 1.0: rifampin 1.0 µg/ml. On the procedure: From an overnight-grown culture of IH3080 on LB agar, a suspension of approx. 10^8 cells/ml was prepared in 0.9% NaCl. Aliquots of this suspension were then pipetted on the agar plates and the plates were gently shaken to spread the suspension evenly on the entire surface of the plate. Thereafter, the unabsorbed part of the suspension was removed by using a Pasteur pipette. After the surface had dried, small wells (diameter, 2 mm) were drilled on the plates (five wells per plate) by using a sterile sharp-edged narrow metal tube, single-use pipette tip, and vacuum suction. […] Controls included 0.9% NaCl solution without the compound to be tested. The plates were then incubated for 18 h at 37°C whereafter the diameters of growth inhibition zones around each well were measured; the diameter of the well itself was […]. Finally, the diameters were converted to surface areas of growth inhibition (in square mm). […] Louis, MO, U.S.A).

The test system of assay [4] is E. coli IH3080. Description: Growth inhibition around wells on LB agar plates. In kind it is cell-based, Escherichia coli. To be noted: 18 h at 37°C; for Antibacterial activity at 4 µg: growth inhibition area around a well containing 4 µg of compound; for Antibacterial activity at 10 µg: growth inhibition area around a well containing 10 µg of compound. On the procedure: Peptides synthesized in Example 1, all carrying at least two (2) but not more than three (3) positive charges, were studied for their ability to inhibit the growth of E. coli. This was tested employing LB agar (LB Agar Lennox, Difco, BD, Sparks, MD, U.S.A) plates. The indicator organism E. coli IH3080 (K1:O18) was an encapsulated strain originally isolated from a neonate suffering from meningitis (Vaara et al. 1984) and obtained from National Public Health Institute, Helsinki, Finland.
From an overnight-grown culture of IH3080 on LB agar, a suspension of approx. 10^8 cells/ml was prepared in 0.9% NaCl. Aliquots of this suspension were then pipetted on the agar plates and the plates were gently shaken to spread the suspension evenly on the entire surface of the plate. Thereafter, the unabsorbed part of the suspension was removed by using a Pasteur pipette. After the surface had dried, small wells (diameter, 2 mm) were drilled on the plates (five wells per plate) by using a sterile sharp-edged narrow metal tube, single-use pipette tip, and vacuum suction. […] Controls included 0.9% NaCl solution without the compound to be tested. The plates were then incubated for 18 h at 37°C whereafter the diameters of growth inhibition zones around each well were measured; the diameter of the well itself was […]. Finally, the diameters were converted to surface areas of growth inhibition (in square mm).

Turning to `CC(C)(O/N=C(\C(=O)N[C@@H]1C(=O)N2C(C(=O)[O-])=C(C[n+]3ccccc3)CS[C@H]12)c1csc(N)n1)C(=O)O` [ceftazidime], the Sensitization factor with E. coli ATCC25922 is listed as < 2.

Consider `CCN1CCN(C(=O)N[C@@H](C(=O)N[C@@H]2C(=O)N3[C@@H]2SC(C)(C)[C@@H]3C(=O)O)c2ccccc2)C(=O)C1=O` [piperacillin], for which the Sensitization factor in the assay on E. coli ATCC25922 is given as < 2.

With `CC[C@H]1OC(=O)[C@H](C)[C@@H](O[C@H]2C[C@@](C)(OC)[C@@H](O)[C@H](C)O2)[C@H](C)[C@@H](O[C@@H]2O[C@H](C)C[C@H](N(C)C)[C@H]2O)[C@](C)(O)C[C@@H](C)CN(C)[C@H](C)[C@@H](O)[C@]1(C)O` [Azithromycin, azithromycin], the Sensitization factor in the assay on K. pneumoniae ATCC13883 was 31 - 43; with E. cloacae ATCC23355, 32; with E. coli ATCC25922 it was 24 - 64; in the assay with E. coli IH3080 [1], 31 - 94; in assay [2], 31-94.

Take `NC[C@H]1O[C@H](O[C@H]2[C@H](O)[C@@H](O[C@H]3O[C@H](CO)[C@@H](O)[C@H](N)[C@H]3O)[C@H](N)C[C@@H]2N)[C@H](N)C[C@@H]1O` [tobramycin]: in the assay with E. coli ATCC25922, the Sensitization factor is < 2.

For the compound `CN[C@H](CC(C)C)C(=O)N[C@H]1C(=O)N[C@@H](CC(N)=O)C(=O)N[C@H]2C(=O)N[C@H]3C(=O)N[C@H](C(=O)N[C@H](C(=O)O)c4cc(O)cc(O)c4-c4cc3ccc4O)[C@H](O)c3ccc(c(Cl)c3)Oc3cc2cc(c3O[C@@H]2O[C@H](CO)[C@@H](O)[C@H](O)[C@H]2O[C@H]2C[C@](C)(N)[C@H](O)[C@H](C)O2)Oc2ccc(cc2Cl)[C@H]1O` [Vancomycin, vancomycin], the Sensitization factor in the assay on K. pneumoniae ATCC13883 came out at 1; in the assay with E. cloacae ATCC23355, 32; with E. coli ATCC25922 it was 5; in the assay on E. coli IH3080 [1] it was 2.5.

As for `COc1cc(Cc2cnc(N)nc2N)cc(OC)c1OC` [Trimetoprim], the Sensitization factor in the assay with K. pneumoniae ATCC13883 was 2; in the assay on E. cloacae ATCC23355 it was 3; in the assay with E. coli IH3080 [1], 3.

Regarding `CC(=O)NC[C@H]1CN(c2ccc(N3CCOCC3)c(F)c2)C(=O)O1` [Linezolid, linezolid], the Sensitization factor with K. pneumoniae ATCC13883 is reported as > 4; in the assay with E. cloacae ATCC23355, > 8; in the assay on E. coli ATCC25922, > 11; in the assay on E. coli IH3080 [1] it was > 8.

In the case of `CC[C@H](NC(=O)[C@@H](N)[C@@H](C)O)C(=O)N[C@H]1CCNC(=O)[C@H]([C@@H](C)O)NC(=O)[C@H](CCN)NC(=O)[C@H](CCN)NC(=O)[C@H](CC(C)C)NC(=O)[C@@H](Cc2ccccc2)NC(=O)[C@H](CCN)NC1=O` [NAB 704] (H-T[Abu][Dab][Dab][dF]L[Dab][Dab]T; lactam 3-C), in the assay on E. coli IH3080 [3], the “Antibacterial activity in the presence of rifampin concn (µg/ml) of 0” value is on record as 0 square millimeters, the “Antibacterial activity in the presence of rifampin concn (µg/ml) of 0.1” value (from here on “Antibacterial activity in the presence … of 0.1”) was found to be 0 square millimeters and the “Antibacterial activity in the presence of rifampin concn (µg/ml) of 1.0” value (“Antibacterial activity in the presence … of 1.0” below) is recorded as 24 square millimeters. Moreover, in the assay on E. coli IH3080 [4], the “Antibacterial activity at 4 µg” value was determined as 0 square millimeters and the “Antibacterial activity at 10 µg” value was determined as 0 square millimeters.

`CC(=O)O[C@H]1C[C@@]2(C)[C@@H](C[C@@H](O)[C@H]3[C@@]4(C)CC[C@@H](O)[C@@H](C)[C@@H]4CC[C@@]32C)/C1=C(\CCC=C(C)C)C(=O)O` [Fusidic acid, fusidic acid]: the Sensitization factor is given as > 4 in the assay with K. pneumoniae ATCC13883, > 8 in the assay with E. cloacae ATCC23355, > 43 in the assay on E. coli ATCC25922 and > 43 with E. coli IH3080 [1].

Regarding `CC[C@@H]1NC(=O)[C@H](CC(C)C)NC(=O)[C@@H](Cc2ccccc2)NC(=O)[C@H](CCN)NC(=O)[C@@H](NC(=O)[C@H](CCN)NC(=O)[C@@H](N)[C@@H](C)O)CCNC(=O)[C@H]([C@@H](C)O)NC(=O)[C@H](CC)NC1=O` [NAB 701] (H-T[Dab][Dab][Dab][dF]L[Abu][Abu]T; lactam 3-C), in the assay with E. coli IH3080 [3], the “Antibacterial activity in the presence of rifampin concn (µg/ml) of 0” value was found to be 0 square millimeters, the “Antibacterial activity in the presence … of 0.1” value is on record as 0 square millimeters and the “Antibacterial activity in the presence … of 1.0” value was 0 square millimeters. Moreover, in the assay on E. coli IH3080 [4], the “Antibacterial activity at 4 µg” value was 0 square millimeters and the “Antibacterial activity at 10 µg” value is listed as 0 square millimeters.

Consider `CO[C@H]1/C=C/O[C@@]2(C)Oc3c(C)c(O)c4c(O)c(c(/C=N/N5CCN(C)CC5)c(O)c4c3C2=O)NC(=O)/C(C)=C\C=C\[C@H](C)[C@H](O)[C@@H](C)[C@@H](O)[C@@H](C)[C@H](OC(C)=O)[C@@H]1C` [Rifampin, rifampin], for which the Sensitization factor is listed as 250 - 500 in the assay with K. pneumoniae ATCC13883, 750 - 1500 in the assay with E. cloacae ATCC23355, 250 - 750 in the assay on E. coli ATCC25922 and 170 - 350 in the assay on E. coli IH3080 [1].

Turning to `CC[C@H](NC(=O)[C@@H](NC(=O)[C@@H](N)CC)[C@@H](C)O)C(=O)N[C@H]1CCNC(=O)[C@H]([C@@H](C)O)NC(=O)[C@H](CCN)NC(=O)[C@H](CCN)NC(=O)[C@H](CC(C)C)NC(=O)[C@@H](Cc2ccccc2)NC(=O)[C@H](CCN)NC1=O` [NAB 705] (H-[Abu]T[Abu][Dab][Dab][dF]L[Dab][Dab]T; lactam 4-C), in the assay on E. coli IH3080 [3], the “Antibacterial activity in the presence of rifampin concn (µg/ml) of 0” value turned out to be 0 square millimeters, the “Antibacterial activity in the presence … of 0.1” value was 0 square millimeters and the “Antibacterial activity in the presence … of 1.0” value is given as 5 square millimeters. For the same compound, in the assay on E. coli IH3080 [4], the “Antibacterial activity at 4 µg” value amounted to 0 square millimeters and the “Antibacterial activity at 10 µg” value is on record as 0 square millimeters.

With “quinupristin-dalfopristin [Quinupristin-dalfopr.]”, the Sensitization factor with K. pneumoniae ATCC13883 is reported as 1; in the assay with E. cloacae ATCC23355, > 5; in the assay on E. coli ATCC25922, > 21; with E. coli IH3080 [1], > 21.

Turning to `CC[C@H]1OC(=O)[C@H](C)[C@@H](O[C@H]2C[C@@](C)(OC)[C@@H](O)[C@H](C)O2)[C@H](C)[C@@H](O[C@@H]2O[C@H](C)C[C@H](N(C)C)[C@H]2O)[C@](C)(O)C[C@@H](C)C(=O)[C@H](C)[C@@H](O)[C@]1(C)O` [Erythromycin, erythromycin], the Sensitization factor is reported as 24 - 48 with K. pneumoniae ATCC13883; 21 - 43 in the assay with E. cloacae ATCC23355; 32 - 48 with E. coli ATCC25922; 32 - 42 in the assay on E. coli IH3080 [1]; 21-48 in assay [2].

On to `C[C@H]1COc2c(N3CCN(C)CC3)c(F)cc3c(=O)c(C(=O)O)cn1c23` [levofloxacin], for which, in the assay on E. coli ATCC25922, the Sensitization factor is < 2.

As for `C/C(=C\C(=O)OCCCCCCCCC(=O)O)C[C@@H]1OC[C@H](C[C@@H]2O[C@H]2[C@@H](C)[C@H](C)O)[C@@H](O)[C@H]1O` [Mupirocin, mupirocin], the Sensitization factor in the assay on K. pneumoniae ATCC13883 is reported as 24 - 32; with E. cloacae ATCC23355, 250 - 512; in the assay on E. coli ATCC25922 it was 64 - 170; with E. coli IH3080 [1], 64 - 85; in assay [2] it was 24-512.

Take `CO/N=C(\C(=O)N[C@@H]1C(=O)N2C(C(=O)O)=C(COC(C)=O)CS[C@H]12)c1csc(N)n1` [cefotaxime]: the Sensitization factor in the assay on E. coli ATCC25922 is < 2.
